Drawing on ChEMBL document CHEMBL3991601, “The target landscape of clinical kinase drugs” (Science, 2017), this text covers Kd for 24 compounds.

Each structure is given as a SMILES string. Activity calls are given as the source filed them.

The target of assay [1] is Misshapen-like kinase 1 (Homo sapiens, UniProt Q8N4C8).
Assay [2] concerns the target Serine/threonine-protein kinase PLK1 (Homo sapiens, UniProt P53350).
The target in assay [3] is T1, Tyrosine-protein kinase Mer (Homo sapiens, UniProt Q12866).
T1 sequence (Q12866 whole entry): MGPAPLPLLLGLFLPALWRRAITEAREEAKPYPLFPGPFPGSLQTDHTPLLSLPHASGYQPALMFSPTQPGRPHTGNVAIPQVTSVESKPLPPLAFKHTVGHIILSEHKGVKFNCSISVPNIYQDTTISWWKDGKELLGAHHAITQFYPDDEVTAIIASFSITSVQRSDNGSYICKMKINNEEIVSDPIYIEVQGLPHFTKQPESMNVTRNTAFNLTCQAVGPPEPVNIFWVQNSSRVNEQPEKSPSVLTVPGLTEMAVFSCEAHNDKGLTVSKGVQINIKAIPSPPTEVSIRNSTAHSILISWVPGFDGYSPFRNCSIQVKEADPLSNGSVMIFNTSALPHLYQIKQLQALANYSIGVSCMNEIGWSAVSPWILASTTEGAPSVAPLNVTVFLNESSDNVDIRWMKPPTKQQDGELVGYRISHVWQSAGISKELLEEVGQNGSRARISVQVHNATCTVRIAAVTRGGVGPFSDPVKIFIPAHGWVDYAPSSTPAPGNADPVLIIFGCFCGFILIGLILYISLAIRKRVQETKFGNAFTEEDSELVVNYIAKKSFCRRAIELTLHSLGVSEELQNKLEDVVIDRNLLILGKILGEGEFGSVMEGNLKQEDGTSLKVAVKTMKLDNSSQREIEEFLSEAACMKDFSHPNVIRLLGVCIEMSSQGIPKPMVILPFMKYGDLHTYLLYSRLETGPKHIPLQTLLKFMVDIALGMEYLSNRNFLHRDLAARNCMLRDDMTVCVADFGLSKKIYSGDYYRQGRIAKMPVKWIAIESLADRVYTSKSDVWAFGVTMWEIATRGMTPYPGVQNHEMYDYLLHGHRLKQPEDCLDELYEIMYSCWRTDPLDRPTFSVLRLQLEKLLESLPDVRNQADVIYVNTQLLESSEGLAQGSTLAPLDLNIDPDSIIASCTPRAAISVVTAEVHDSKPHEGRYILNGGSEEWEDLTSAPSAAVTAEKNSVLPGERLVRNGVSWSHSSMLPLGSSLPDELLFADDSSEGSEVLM

Assay [4] concerns the target T2, Dual specificity mitogen-activated protein kinase kinase 4 (Homo sapiens, UniProt P45985).
T2 sequence (P45985 whole entry): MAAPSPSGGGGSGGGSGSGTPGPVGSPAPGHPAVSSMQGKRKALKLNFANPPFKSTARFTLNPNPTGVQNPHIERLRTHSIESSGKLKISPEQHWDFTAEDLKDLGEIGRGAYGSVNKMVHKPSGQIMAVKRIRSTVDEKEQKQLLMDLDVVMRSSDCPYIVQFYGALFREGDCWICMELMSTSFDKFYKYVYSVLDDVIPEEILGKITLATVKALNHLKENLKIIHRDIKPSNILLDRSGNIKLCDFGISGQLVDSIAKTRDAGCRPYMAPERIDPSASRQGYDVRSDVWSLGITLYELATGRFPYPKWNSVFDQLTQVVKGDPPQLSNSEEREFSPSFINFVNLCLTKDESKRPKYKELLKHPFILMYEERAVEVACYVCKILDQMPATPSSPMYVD

Assay [5] addresses Cyclin-dependent kinase 10 (Homo sapiens, UniProt Q15131).
Assay [6] has as its target Dual specificity mitogen-activated protein kinase kinase 1 (Homo sapiens, UniProt Q02750).
Assay [7] addresses Serine/threonine-protein kinase 38 (Homo sapiens, UniProt Q15208).
The target of assay [8] is Serine/threonine-protein kinase 38-like (Homo sapiens, UniProt Q9Y2H1).
Serine/threonine-protein kinase 38-like, sequence (Q9Y2H1 whole entry): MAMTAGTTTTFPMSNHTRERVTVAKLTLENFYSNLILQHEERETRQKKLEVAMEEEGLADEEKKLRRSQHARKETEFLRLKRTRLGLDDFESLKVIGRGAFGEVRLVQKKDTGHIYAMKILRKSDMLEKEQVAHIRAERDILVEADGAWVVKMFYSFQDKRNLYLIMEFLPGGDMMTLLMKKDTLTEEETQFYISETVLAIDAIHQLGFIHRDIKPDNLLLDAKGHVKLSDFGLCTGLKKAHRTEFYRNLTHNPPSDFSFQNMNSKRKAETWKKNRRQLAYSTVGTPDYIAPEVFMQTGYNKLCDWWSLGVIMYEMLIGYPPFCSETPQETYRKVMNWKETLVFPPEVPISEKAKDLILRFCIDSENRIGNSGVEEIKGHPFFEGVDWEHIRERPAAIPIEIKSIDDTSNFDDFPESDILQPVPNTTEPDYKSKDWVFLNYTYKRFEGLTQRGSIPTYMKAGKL
Assay [9] concerns the target T3, Cyclin-dependent kinase-like 5 (Homo sapiens, UniProt O76039).
T3 sequence (O76039 whole entry): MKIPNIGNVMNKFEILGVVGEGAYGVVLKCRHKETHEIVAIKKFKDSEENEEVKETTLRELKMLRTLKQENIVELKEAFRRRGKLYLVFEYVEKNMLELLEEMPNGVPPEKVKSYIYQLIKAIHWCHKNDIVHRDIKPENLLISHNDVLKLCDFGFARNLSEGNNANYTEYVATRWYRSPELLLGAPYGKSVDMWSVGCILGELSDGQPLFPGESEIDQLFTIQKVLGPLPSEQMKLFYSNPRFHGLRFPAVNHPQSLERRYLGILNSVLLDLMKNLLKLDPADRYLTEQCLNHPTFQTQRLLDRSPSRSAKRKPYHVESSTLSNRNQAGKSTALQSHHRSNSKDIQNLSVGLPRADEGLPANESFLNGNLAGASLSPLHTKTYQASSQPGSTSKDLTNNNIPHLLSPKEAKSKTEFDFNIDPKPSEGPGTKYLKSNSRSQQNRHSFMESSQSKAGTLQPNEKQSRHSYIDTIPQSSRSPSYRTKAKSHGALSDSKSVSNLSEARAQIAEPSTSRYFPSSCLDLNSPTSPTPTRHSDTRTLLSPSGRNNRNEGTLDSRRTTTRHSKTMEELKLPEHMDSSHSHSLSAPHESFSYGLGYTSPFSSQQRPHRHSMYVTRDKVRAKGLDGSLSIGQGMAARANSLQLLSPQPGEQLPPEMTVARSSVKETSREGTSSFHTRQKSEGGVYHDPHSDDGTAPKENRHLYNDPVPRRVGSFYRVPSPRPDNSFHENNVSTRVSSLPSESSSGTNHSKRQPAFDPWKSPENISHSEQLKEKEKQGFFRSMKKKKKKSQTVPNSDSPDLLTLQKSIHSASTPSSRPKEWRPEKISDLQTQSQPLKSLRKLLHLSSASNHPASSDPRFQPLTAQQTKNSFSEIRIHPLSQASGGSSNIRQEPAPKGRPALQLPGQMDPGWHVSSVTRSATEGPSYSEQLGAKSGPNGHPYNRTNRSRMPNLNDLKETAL
Further: in the data inactive means no Kd found up to 30 µM.

Serine/threonine-protein kinase 38, sequence (Q15208 whole entry): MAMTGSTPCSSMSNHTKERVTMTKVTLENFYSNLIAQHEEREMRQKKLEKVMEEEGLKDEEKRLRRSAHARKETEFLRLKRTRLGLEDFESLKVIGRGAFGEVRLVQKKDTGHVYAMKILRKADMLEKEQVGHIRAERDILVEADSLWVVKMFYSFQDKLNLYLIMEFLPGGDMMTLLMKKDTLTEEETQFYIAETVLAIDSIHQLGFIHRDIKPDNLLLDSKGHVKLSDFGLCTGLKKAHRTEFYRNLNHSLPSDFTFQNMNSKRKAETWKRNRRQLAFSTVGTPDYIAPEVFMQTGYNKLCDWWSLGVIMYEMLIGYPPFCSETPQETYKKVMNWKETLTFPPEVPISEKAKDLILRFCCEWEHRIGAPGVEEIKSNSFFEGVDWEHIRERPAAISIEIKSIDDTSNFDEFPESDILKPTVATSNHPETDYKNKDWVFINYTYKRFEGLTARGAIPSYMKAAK
Cyclin-dependent kinase 10, sequence (Q15131 whole entry): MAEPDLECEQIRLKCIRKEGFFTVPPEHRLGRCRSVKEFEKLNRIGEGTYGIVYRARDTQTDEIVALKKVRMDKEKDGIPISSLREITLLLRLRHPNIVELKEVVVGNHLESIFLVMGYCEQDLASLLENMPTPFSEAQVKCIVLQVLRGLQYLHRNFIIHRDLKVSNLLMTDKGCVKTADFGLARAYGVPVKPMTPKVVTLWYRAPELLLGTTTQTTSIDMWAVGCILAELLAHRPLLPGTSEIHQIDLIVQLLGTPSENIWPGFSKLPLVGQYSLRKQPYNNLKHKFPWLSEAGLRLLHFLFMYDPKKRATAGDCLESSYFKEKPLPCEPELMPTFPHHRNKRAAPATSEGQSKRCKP
Dual specificity mitogen-activated protein kinase kinase 1, sequence (Q02750 whole entry): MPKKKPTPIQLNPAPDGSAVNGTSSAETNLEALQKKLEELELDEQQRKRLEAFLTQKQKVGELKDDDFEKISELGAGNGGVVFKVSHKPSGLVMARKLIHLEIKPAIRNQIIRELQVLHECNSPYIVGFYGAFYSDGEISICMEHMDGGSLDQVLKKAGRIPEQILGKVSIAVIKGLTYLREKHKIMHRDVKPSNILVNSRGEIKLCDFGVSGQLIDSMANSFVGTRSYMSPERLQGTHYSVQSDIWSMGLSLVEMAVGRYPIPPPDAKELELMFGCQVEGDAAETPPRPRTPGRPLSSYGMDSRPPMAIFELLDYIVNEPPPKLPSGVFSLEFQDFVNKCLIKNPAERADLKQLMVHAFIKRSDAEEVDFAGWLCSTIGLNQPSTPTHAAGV
Misshapen-like kinase 1, sequence (Q8N4C8 whole entry): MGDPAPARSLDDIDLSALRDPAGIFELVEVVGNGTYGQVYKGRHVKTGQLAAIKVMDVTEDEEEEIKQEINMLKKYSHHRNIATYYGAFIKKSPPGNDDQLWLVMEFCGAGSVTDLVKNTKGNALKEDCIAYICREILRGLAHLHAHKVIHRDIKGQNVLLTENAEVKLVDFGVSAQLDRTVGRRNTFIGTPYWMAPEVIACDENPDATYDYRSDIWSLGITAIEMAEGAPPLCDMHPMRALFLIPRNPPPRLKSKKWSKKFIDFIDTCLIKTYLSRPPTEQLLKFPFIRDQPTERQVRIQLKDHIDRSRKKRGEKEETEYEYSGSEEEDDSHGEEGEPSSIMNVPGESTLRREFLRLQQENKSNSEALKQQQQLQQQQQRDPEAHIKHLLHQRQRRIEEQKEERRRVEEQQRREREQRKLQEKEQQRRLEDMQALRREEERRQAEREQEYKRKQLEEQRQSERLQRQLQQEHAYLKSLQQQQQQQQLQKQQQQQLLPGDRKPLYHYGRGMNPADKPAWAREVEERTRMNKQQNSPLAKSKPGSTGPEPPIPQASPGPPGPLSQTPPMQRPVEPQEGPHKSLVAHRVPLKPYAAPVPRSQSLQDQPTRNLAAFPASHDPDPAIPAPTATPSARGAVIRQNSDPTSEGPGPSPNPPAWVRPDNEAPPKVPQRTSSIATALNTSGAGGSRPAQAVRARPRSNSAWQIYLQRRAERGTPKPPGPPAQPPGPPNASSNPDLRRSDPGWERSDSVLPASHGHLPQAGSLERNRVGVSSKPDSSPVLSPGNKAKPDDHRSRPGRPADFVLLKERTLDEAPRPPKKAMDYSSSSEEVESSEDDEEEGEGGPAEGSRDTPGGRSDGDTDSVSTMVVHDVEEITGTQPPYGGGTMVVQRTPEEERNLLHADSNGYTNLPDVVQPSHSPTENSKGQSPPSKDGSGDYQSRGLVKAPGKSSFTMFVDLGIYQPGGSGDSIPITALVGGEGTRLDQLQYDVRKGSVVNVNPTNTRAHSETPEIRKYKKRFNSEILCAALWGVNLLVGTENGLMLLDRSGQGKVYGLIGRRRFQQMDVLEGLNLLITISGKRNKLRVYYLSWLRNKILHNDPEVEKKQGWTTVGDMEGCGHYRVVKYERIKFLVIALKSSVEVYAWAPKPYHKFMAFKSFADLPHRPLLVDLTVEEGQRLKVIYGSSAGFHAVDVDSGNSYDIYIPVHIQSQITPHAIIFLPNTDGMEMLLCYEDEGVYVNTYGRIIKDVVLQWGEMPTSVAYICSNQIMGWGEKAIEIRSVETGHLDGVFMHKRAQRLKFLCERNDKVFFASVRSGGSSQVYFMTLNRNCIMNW
Serine/threonine-protein kinase PLK1, sequence (P53350 whole entry): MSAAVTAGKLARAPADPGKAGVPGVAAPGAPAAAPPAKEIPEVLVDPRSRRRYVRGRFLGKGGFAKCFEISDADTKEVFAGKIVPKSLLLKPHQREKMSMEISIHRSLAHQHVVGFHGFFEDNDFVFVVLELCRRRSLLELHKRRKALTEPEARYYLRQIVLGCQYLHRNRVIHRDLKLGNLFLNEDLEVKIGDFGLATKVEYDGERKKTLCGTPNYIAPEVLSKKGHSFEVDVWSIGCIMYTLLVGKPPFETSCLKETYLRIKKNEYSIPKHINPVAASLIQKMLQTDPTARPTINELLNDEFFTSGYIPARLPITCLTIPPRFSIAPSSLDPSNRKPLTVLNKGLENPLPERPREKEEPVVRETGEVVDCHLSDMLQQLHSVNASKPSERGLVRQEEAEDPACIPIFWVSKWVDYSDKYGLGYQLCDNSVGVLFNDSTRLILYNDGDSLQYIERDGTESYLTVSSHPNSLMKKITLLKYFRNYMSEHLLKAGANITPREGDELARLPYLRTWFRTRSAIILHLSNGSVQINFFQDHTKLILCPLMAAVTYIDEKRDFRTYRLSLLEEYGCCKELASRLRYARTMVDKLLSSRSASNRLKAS

The Kd is the equilibrium constant for the complex coming apart. In the case of `S=C(NCc1ccc2c(c1)OCO2)N1CCN(c2ncnc3c2oc2ccccc23)CC1` [AMUVATINIB], the Kd in [1], in assay [2], in assay [3], in [4], in assay [5] and in [6] was > 30 µM (inactive) throughout.
Take `O=c1[nH]c([C@@H]2CCCN2)nc2c1oc1ccc(Cl)cc12`: the Kd in assay [7], in assay [8] and in [6] was > 30 µM (inactive) each time.
As for `O=C(O)c1ccc2c(c1)nc(Nc1cccc(Cl)c1)c1ccncc12` [SILMITASERTIB], the Kd in [1] is > 30 µM (inactive); in assay [2], 0.672 µM (active); in assay [8] it was > 30 µM (inactive); in assay [9] it was > 30 µM (inactive); in [6], > 30 µM (inactive).
As to `c1cc(OCCN2CCCCC2)cc(-c2n[nH]c3ccc(-c4nc[nH]n4)cc23)c1` [CC-401], the Kd in assay [3], in [8], in [9] and in [6] was > 30 µM (inactive) in each case.
For the compound `CNC(=O)c1ccc(Nc2ncc(C(F)(F)F)c(NCc3nccnc3N(C)S(C)(=O)=O)n2)cc1` [DEFACTINIB], the Kd in assay [9] was 0.016 µM; in [6] it was > 30 µM (inactive).
In the case of `CC[C@@](C)(Nc1ccnc(-c2c[nH]c3ncccc23)n1)C(=O)NCC(F)(F)F` [DECERNOTINIB], the Kd in assay [7], in [9] and in assay [6] was > 30 µM (inactive) each time.
As to `CN(c1ncccc1CNc1nc(Nc2ccc3c(c2)CC(=O)N3)ncc1C(F)(F)F)S(C)(=O)=O` [PF-00562271], the Kd in assay [9] and in assay [5] was > 30 µM (inactive) throughout.
As for `N#CCNC(=O)c1ccc(-c2ccnc(Nc3ccc(N4CCOCC4)cc3)n2)cc1` [MOMELOTINIB], the Kd in [9] is > 30 µM (inactive).
Regarding `CCN1CCN(Cc2ccc(Nc3ncc(F)c(-c4cc(F)c5nc(C)n(C(C)C)c5c4)n3)nc2)CC1` [ABEMACICLIB], the Kd in assay [9] and in assay [6] was > 30 µM (inactive) each time.
With `C=CCN(/C=C1/C(=O)O[C@H](COC)[C@@]2(C)C1=C(O)C(=O)C1=C2[C@H](OC(C)=O)C[C@]2(C)C(=O)CC[C@@H]12)CC=C` [SONOLISIB], the Kd in [9] and in assay [6] was > 30 µM (inactive) each time.
As to `CCN(CCCOc1ccc2c(Nc3cc(CC(=O)Nc4cccc(F)c4)n[nH]3)ncnc2c1)CCOP(=O)(O)O` [BARASERTIB], the Kd in [1], in assay [3] and in assay [9] was > 30 µM (inactive) throughout.
With `COCCN1CCN(Cc2ccc(-c3n[nH]c4c3C(=O)c3c(NC(=O)NN5CCOCC5)cccc3-4)cc2)CC1` [RGB-286638], the Kd in [3] and in assay [6] was > 30 µM (inactive) in each case.
As to `COc1cccc(Nc2ncnn3ccc(CN4CC[C@@H](N)[C@H](O)C4)c23)c1` [BMS-690514], the Kd in [4], in [8], in assay [9] and in [6] was > 30 µM (inactive) throughout.
In the case of `Cn1c(=O)c(F)c(Nc2ccc(I)cc2F)c2c(=O)n(C[C@@H](O)CO)cnc21` [TAK-733], the Kd in assay [7] was > 30 µM (inactive); in assay [4] it was > 30 µM (inactive); in assay [6] it was 0.021 µM (active).
As to `COc1cc(Nc2ncc(F)c(Nc3ccc4c(n3)N(COP(=O)(O)O)C(=O)C(C)(C)O4)n2)cc(OC)c1OC` [FOSTAMATINIB], the Kd in assay [2], in [4], in assay [8], in assay [9] and in assay [6] was > 30 µM (inactive) throughout.
For `Cc1cc(C(=O)Nc2cc(Oc3ccc4nc(NC(=O)C5CC5)cn4n3)ccc2C)n(C)n1` [TAK-593], the Kd in assay [2], in assay [9] and in [6] was > 30 µM (inactive) each time.
Regarding `CCOc1ccn(-c2ccc(F)cc2)c(=O)c1C(=O)Nc1ccc(Oc2ccnc(N)c2Cl)c(F)c1` [BMS-777607], the Kd in assay [1], in assay [8], in assay [9] and in [6] was > 30 µM (inactive) throughout.
Regarding `COc1cc2ncnc3c2cc1OCCCCCN(C)Cc1ccc(Br)cc1N3` [JNJ-26483327], the Kd in [7] and in assay [6] was > 30 µM (inactive) each time.
Consider `C=CC(=O)Nc1cccc(Nc2nc(Nc3ccc(N4CCN(C(C)=O)CC4)cc3OC)ncc2C(F)(F)F)c1` [ROCILETINIB], for which the Kd in assay [6] was > 30 µM (inactive).
Consider `COc1cc2ncnc(Nc3ccc(F)c(Cl)c3)c2cc1NC(=O)/C=C/CN1CCCCC1` [DACOMITINIB ANHYDROUS], for which the Kd in assay [4], in [8], in assay [9] and in [6] was > 30 µM (inactive) throughout.
Consider `Cc1c(NC(=O)OC[C@@H]2COCCN2)cn2ncnc(Nc3ccc4c(cnn4Cc4cccc(F)c4)c3)c12` [AC-480], for which the Kd in assay [2] and in [6] was > 30 µM (inactive) throughout.
For the compound `Cc1cc(-c2cc(OC(=O)c3ccccc3)ccc2Cl)cc2nnc(Nc3ccc(OCCN4CCCC4)cc3)nc12` [TG100-801], the Kd in [4], in assay [8], in [9], in assay [5] and in assay [6] was > 30 µM (inactive) in each case.
In the case of `Cc1ccc(C(=O)Nc2ccc(Oc3cc4cnn(C)c4cc3-c3cn[nH]c3)c(F)c2)c(=O)n1-c1ccc(F)cc1` [MERESTINIB], the Kd in assay [1], in assay [2], in assay [4], in [8], in assay [5] and in assay [6] was > 30 µM (inactive) each time.
`C[C@]1(O)C[C@@H](c2nc(-c3ccc4ccc(-c5ccccc5)nc4c3)c3c(N)nccn32)C1` [LINSITINIB]: the Kd in assay [1], in [3], in [4] and in assay [5] was > 30 µM (inactive) throughout.
